Data from PubChem BioAssay (NCI).
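GI50: concentration for 50% inhibition of growth. The concentration for full growth arrest is given as TGI.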

Columns and labels:
Assay in all cases: NCI-60 cell line screen, 384-well format
EKVX NSCLC = test system: EKVX NSCLC
SK-MEL-28 melanoma = test system: SK-MEL-28 melanoma
RXF 393 renal = test system: RXF 393 renal
OVCAR-8 ovarian = test system: OVCAR-8 ovarian
NCI-H322M lung = test system: NCI-H322M lung
SF-539 CNS = test system: SF-539 CNS
DU-145 prostate = test system: DU-145 prostate
SK-OV-3 ovarian = test system: SK-OV-3 ovarian
CAKI-1 renal = test system: CAKI-1 renal
OVCAR-5 ovarian = test system: OVCAR-5 ovarian
NCI/ADR-RES ovarian = test system: NCI/ADR-RES ovarian
MOLT-4 leukemia = test system: MOLT-4 leukemia
HOP-92 NSCLC = test system: HOP-92 NSCLC
HT29 colon = test system: HT29 colon
PC-3 prostate = test system: PC-3 prostate
T-47D breast = test system: T-47D breast
UACC-257 melanoma = test system: UACC-257 melanoma
MCF7 breast = test system: MCF7 breast
MDA-MB-231 breast = test system: MDA-MB-231 breast
SNB-19 CNS = test system: SNB-19 CNS
M14 melanoma = test system: M14 melanoma
NCI-H522 lung = test system: NCI-H522 lung
A549 NSCLC = test system: A549 NSCLC
HCT-116 colon = test system: HCT-116 colon
RPMI-8226 leukemia = test system: RPMI-8226 leukemia
SF-295 CNS = test system: SF-295 CNS
HOP-62 NSCLC = test system: HOP-62 NSCLC
SF-268 CNS = test system: SF-268 CNS
COLO 205 colon = test system: COLO 205 colon
MDA-MB-435 melanoma = test system: MDA-MB-435 melanoma
U251 glioblastoma = test system: U251 glioblastoma
LOX IMVI melanoma = test system: LOX IMVI melanoma
HL-60(TB) leukemia = test system: HL-60(TB) leukemia
TK-10 renal = test system: TK-10 renal
NCI-H226 lung = test system: NCI-H226 lung
BT-549 breast = test system: BT-549 breast
SK-MEL-5 melanoma = test system: SK-MEL-5 melanoma
A498 renal = test system: A498 renal
SN12C renal = test system: SN12C renal
MALME-3M melanoma = test system: MALME-3M melanoma
HS 578T breast = test system: HS 578T breast
NCI-H460 NSCLC = test system: NCI-H460 NSCLC
UACC-62 melanoma = test system: UACC-62 melanoma
OVCAR-3 ovarian = test system: OVCAR-3 ovarian
KM12 colon = test system: KM12 colon
ACHN renal = test system: ACHN renal
SNB-75 CNS = test system: SNB-75 CNS
SR leukemia = test system: SR leukemia
HCT-15 colon = test system: HCT-15 colon
MDA-MB-468 breast = test system: MDA-MB-468 breast
OVCAR-4 ovarian = test system: OVCAR-4 ovarian
NCI-H23 lung = test system: NCI-H23 lung
IGROV1 ovarian = test system: IGROV1 ovarian
HCC-2998 colon = test system: HCC-2998 colon

## NC(=O)c1cnc(N[C@@H]2CCCC[C@@H]2N)nc1Nc1cccc(-n2nccn2)c1
EKVX NSCLC
  GI50: 1420 nM
  TGI: 2920 nM
SK-MEL-28 melanoma
  GI50: 1380 nM
  TGI: 2690 nM
RXF 393 renal
  GI50: 1510 nM
  TGI: 2910 nM
OVCAR-8 ovarian
  GI50: 1140 nM
  TGI: 2410 nM
NCI-H322M lung
  GI50: 1130 nM
  TGI: 2430 nM
SF-539 CNS
  GI50: 1290 nM
  TGI: 2590 nM
DU-145 prostate
  GI50: 1250 nM
  TGI: 2980 nM
SK-OV-3 ovarian
  GI50: 623 nM
  TGI: 2820 nM
CAKI-1 renal
  GI50: 473 nM
  TGI: 1830 nM
OVCAR-5 ovarian
  GI50: 769 nM
  TGI: 2340 nM
NCI/ADR-RES ovarian
  GI50: 9300 nM
  TGI: 21500 nM
MOLT-4 leukemia
  GI50: 1140 nM
  TGI: 2370 nM
HOP-92 NSCLC
  GI50: 1270 nM
  TGI: 2980 nM
HT29 colon
  GI50: 502 nM
  TGI: 1980 nM
PC-3 prostate
  GI50: 617 nM
  TGI: 2430 nM
T-47D breast
  GI50: 1410 nM
  TGI: 2780 nM
UACC-257 melanoma
  GI50: 1100 nM
  TGI: 2300 nM
MCF7 breast
  GI50: 225 nM
  TGI: 1770 nM
MDA-MB-231 breast
  GI50: 1150 nM
  TGI: 3770 nM
SNB-19 CNS
  GI50: 1310 nM
  TGI: 4000 nM
M14 melanoma
  GI50: 714 nM
  TGI: 2030 nM
NCI-H522 lung
  GI50: 274 nM
  TGI: 1590 nM
A549 NSCLC
  GI50: 1310 nM
  TGI: 2700 nM
HCT-116 colon
  GI50: 1030 nM
  TGI: 2320 nM
RPMI-8226 leukemia
  GI50: 227 nM
  TGI: 1350 nM
SF-295 CNS
  GI50: 1650 nM
  TGI: 3060 nM
HOP-62 NSCLC
  GI50: 462 nM
  TGI: 2060 nM
SF-268 CNS
  GI50: 1560 nM
  TGI: 3110 nM
COLO 205 colon
  GI50: 761 nM
  TGI: 2060 nM
MDA-MB-435 melanoma
  GI50: 571 nM
  TGI: 1920 nM
U251 glioblastoma
  GI50: 1390 nM
  TGI: 2750 nM
LOX IMVI melanoma
  GI50: 372 nM
  TGI: 1450 nM
HL-60(TB) leukemia
  GI50: 12.6 nM
  TGI: 153 nM
TK-10 renal
  GI50: 438 nM
  TGI: 1840 nM
NCI-H226 lung
  GI50: 1210 nM
  TGI: 2510 nM
BT-549 breast
  GI50: 848 nM
  TGI: 2110 nM
SK-MEL-5 melanoma
  GI50: 145 nM
  TGI: 1130 nM
A498 renal
  GI50: 1040 nM
  TGI: 2260 nM
SN12C renal
  GI50: 178 nM
  TGI: 1630 nM
MALME-3M melanoma
  GI50: 1230 nM
  TGI: 2490 nM
HS 578T breast
  GI50: 1080 nM
  TGI: 2320 nM
NCI-H460 NSCLC
  GI50: 1410 nM
  TGI: 2770 nM
UACC-62 melanoma
  GI50: 305 nM
  TGI: 1810 nM
OVCAR-3 ovarian
  GI50: 1020 nM
  TGI: 2300 nM
KM12 colon
  GI50: 410 nM
  TGI: 1690 nM
ACHN renal
  GI50: 1280 nM
  TGI: 2570 nM
SNB-75 CNS
  GI50: 1410 nM
  TGI: 3230 nM
SR leukemia
  GI50: 183 nM
  TGI: 1470 nM
HCT-15 colon
  GI50: 1230 nM
  TGI: 2610 nM
MDA-MB-468 breast
  GI50: 1440 nM
  TGI: 2810 nM
OVCAR-4 ovarian
  GI50: 236 nM
  TGI: 1980 nM
NCI-H23 lung
  GI50: 801 nM
  TGI: 2150 nM
IGROV1 ovarian
  GI50: 631 nM
  TGI: 2290 nM
HCC-2998 colon
  GI50: 415 nM
  TGI: 1850 nM
